Source: the supplement of paper PMC10307832

Key:
Test in all cases: relative viability (nuclei count vs DMSO), 5 days (fraction); higher = more cells survive
Zosuquidar + Phenformin = compound: O[C@@H](COc1cccc2ncccc12)CN1CCN([C@@H]2c3ccccc3[C@@H]3[C@H](c4ccccc42)C3(F)F)CC1 [Zosuquidar] + N=C(N)NC(=N)NCCc1ccccc1 [Phenformin] (partner 250 µM)
Procedure, shortened: (§1)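 Relative viability equals treated-well nuclei counts divided by vehicle-well nuclei counts. Counts came from 4× images of lung cancer cell lines grown in 1536-well plates for 5 days after pin-tool dosing on the day after seeding. Dosing used one drug alone or a fixed anchor-drug dose plus five library-drug doses (not always all listed) in √10 steps, and values are medians of duplicate plates.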

Zosuquidar + Crizotinib = compound: O[C@@H](COc1cccc2ncccc12)CN1CCN([C@@H]2c3ccccc3[C@@H]3[C@H](c4ccccc42)C3(F)F)CC1 [Zosuquidar] + C[C@@H](Oc1cc(-c2cnn(C3CCNCC3)c2)cnc1N)c1c(Cl)ccc(F)c1Cl [Crizotinib] (partner 1 µM)
Procedure, shortened: as §1

[1] = compound: COc1cc2nccc(Oc3ccc(NC(=O)C4(C(=O)Nc5ccc(F)cc5)CC4)cc3)c2cc1OC [Cabozantinib] + CCNC(=O)c1noc(-c2cc(C(C)C)c(O)cc2O)c1-c1ccc(CN2CCOCC2)cc1 [Luminespib] (partner 0.01 µM)
Procedure, shortened: as §1

Zosuquidar + Luminespib = compound: O[C@@H](COc1cccc2ncccc12)CN1CCN([C@@H]2c3ccccc3[C@@H]3[C@H](c4ccccc42)C3(F)F)CC1 [Zosuquidar] + CCNC(=O)c1noc(-c2cc(C(C)C)c(O)cc2O)c1-c1ccc(CN2CCOCC2)cc1 [Luminespib] (partner 0.01 µM)
Procedure, shortened: as §1

Cell Line	relative viability (Zosuquidar + Phenformin; first compound 0.01 µM)	relative viability (Zosuquidar + Phenformin; first compound 0.03162 µM)	relative viability (Zosuquidar + Phenformin; first compound 0.1 µM)	relative viability (Zosuquidar + Phenformin; first compound 0.3162 µM)	relative viability (Zosuquidar + Phenformin; first compound 1 µM)	relative viability (Zosuquidar + Crizotinib; first compound 0.01 µM)	relative viability (Zosuquidar + Crizotinib; first compound 0.03162 µM)	relative viability (Zosuquidar + Crizotinib; first compound 0.1 µM)	relative viability (Zosuquidar + Crizotinib; first compound 0.3162 µM)	relative viability (Zosuquidar + Crizotinib; first compound 1 µM)	relative viability ([1]; first compound 0.02 µM)	relative viability ([1]; first compound 0.06325 µM)	relative viability ([1]; first compound 0.6325 µM)	relative viability ([1]; first compound 2 µM)	relative viability (Zosuquidar + Luminespib; first compound 0.01 µM)	relative viability (Zosuquidar + Luminespib; first compound 0.03162 µM)	relative viability (Zosuquidar + Luminespib; first compound 0.1 µM)	relative viability (Zosuquidar + Luminespib; first compound 0.3162 µM)	relative viability (Zosuquidar + Luminespib; first compound 1 µM)	relative viability ([1]; first compound 0.2 µM)
PC-3 [JPC-3]	0.493	0.493	0.462	0.46	0.453	0.861	0.981	0.878	0.964	0.946	0.857	0.803	0.825	0.777	0.697	0.647	0.647	0.658	0.75	–
HARA	0.408	–	0.489	0.41	0.451	0.924	1.03	1.14	1.09	1.07	0.722	0.421	0.92	0.548	0.586	–	0.837	0.92	0.649	0.615
NCI-H2347	0.411	0.394	0.253	0.396	0.426	0.786	0.75	0.575	0.794	0.717	0.411	0.661	–	0.515	0.539	0.51	0.256	0.34	0.602	0.778
LOU-NH91	0.62	0.702	–	0.768	0.692	0.733	0.738	0.691	0.736	0.736	0.363	0.358	0.385	0.271	0.331	0.317	–	0.343	0.355	–
LC-2-ad	0.584	0.561	0.576	0.626	0.55	0.443	0.508	0.451	0.449	0.46	–	1.1	0.914	0.956	1.05	0.85	0.981	0.999	0.987	1.03
LCLC-97TM1	0.409	0.442	0.46	0.454	0.445	0.389	0.327	–	0.429	0.339	0.784	0.817	0.805	0.638	0.765	0.755	0.742	0.814	0.913	0.875
EKVX	0.231	0.252	0.189	0.243	0.227	0.951	1.01	0.883	0.995	0.705	0.859	1.02	0.751	0.893	0.926	0.8	0.749	0.812	0.832	0.918
NCI-H441	0.903	0.845	0.643	0.832	0.916	0.681	0.788	0.689	–	0.742	0.326	0.404	0.324	0.375	0.355	0.244	0.403	0.286	0.326	0.306
HCC-827	0.351	0.467	0.333	0.413	0.398	0.931	0.923	0.937	0.871	0.872	0.898	1.02	0.824	0.565	0.518	0.576	0.501	0.704	0.7	–
NCI-H838	0.568	0.418	0.432	0.663	0.576	0.802	0.789	0.849	0.901	0.779	0.369	0.342	0.259	0.34	0.329	0.328	0.28	0.304	0.284	0.3
CAL-12T	0.634	0.629	0.554	0.576	0.582	0.51	0.676	0.719	0.747	0.497	0.832	0.574	0.581	1.37	0.443	0.575	0.513	0.221	0.504	0.37
NCI-H2342	0.581	0.558	0.49	0.581	0.623	–	–	–	–	–	0.673	0.837	0.604	0.591	0.753	0.591	0.605	0.644	0.845	0.864
SW 900	0.597	0.578	0.618	0.738	0.557	–	–	–	–	–	0.17	0.19	0.177	0.166	0.172	0.171	0.181	0.198	0.172	0.2
IA-LM	–	–	–	–	–	–	0.804	1.05	1.03	0.861	–	–	–	–	–	–	–	–	–	–
EPLC-272H	0.344	0.288	0.287	0.241	0.301	0.899	0.901	0.97	0.813	0.751	0.418	0.282	0.476	0.256	0.39	0.362	0.514	0.361	0.266	0.14
A-427	0.344	0.324	0.368	0.401	0.383	0.851	0.911	0.784	0.957	0.858	1.23	1.15	0.912	0.857	1.15	0.963	0.749	1.13	0.756	1.03
NCI-H727	0.318	0.563	0.466	0.522	0.519	0.905	0.925	0.732	0.798	0.925	0.285	0.453	0.362	0.312	0.23	0.344	0.434	0.427	0.431	0.643
NCI-H1993	0.422	0.596	0.438	0.476	0.533	0.864	0.859	0.789	1.01	0.881	0.787	0.738	0.828	0.73	0.874	0.78	1.55	0.778	0.75	0.667
LK-2	0.413	0.412	0.549	0.67	0.475	0.237	0.218	0.28	0.274	0.224	–	0.176	0.198	0.196	0.185	0.184	0.169	0.172	0.172	–
SW 1573	0.405	0.311	0.457	0.417	0.39	0.873	0.728	0.791	0.775	0.833	0.22	0.223	0.151	0.122	0.281	0.287	0.287	0.275	0.355	0.221

Cell Line	relative viability (Zosuquidar + Phenformin; first compound 0.01 µM)	relative viability (Zosuquidar + Phenformin; first compound 0.03162 µM)	relative viability (Zosuquidar + Phenformin; first compound 0.1 µM)	relative viability (Zosuquidar + Phenformin; first compound 0.3162 µM)	relative viability (Zosuquidar + Phenformin; first compound 1 µM)	relative viability (Zosuquidar + Crizotinib; first compound 0.01 µM)	relative viability (Zosuquidar + Crizotinib; first compound 0.03162 µM)	relative viability (Zosuquidar + Crizotinib; first compound 0.1 µM)	relative viability (Zosuquidar + Crizotinib; first compound 0.3162 µM)	relative viability (Zosuquidar + Crizotinib; first compound 1 µM)	relative viability ([1]; first compound 0.02 µM)	relative viability ([1]; first compound 0.06325 µM)	relative viability ([1]; first compound 0.6325 µM)	relative viability ([1]; first compound 2 µM)	relative viability (Zosuquidar + Luminespib; first compound 0.01 µM)	relative viability (Zosuquidar + Luminespib; first compound 0.03162 µM)	relative viability (Zosuquidar + Luminespib; first compound 0.1 µM)	relative viability (Zosuquidar + Luminespib; first compound 0.3162 µM)	relative viability (Zosuquidar + Luminespib; first compound 1 µM)	relative viability ([1]; first compound 0.2 µM)
NCI-H1915	0.377	0.386	0.347	0.38	0.37	0.868	0.938	0.887	0.882	0.909	0.915	0.978	0.871	0.776	0.742	0.839	0.792	0.753	0.811	0.779
NCI-H661	0.267	0.254	0.275	0.275	0.27	0.993	1.07	–	1.05	0.906	0.904	0.929	0.957	0.938	0.911	0.875	0.875	0.938	0.891	1.01
NCI-H520	0.567	0.579	–	0.658	0.565	0.727	0.68	0.737	0.834	0.828	0.257	0.198	0.237	0.189	0.226	0.192	–	0.193	0.206	0.249
COR-L 105	0.547	0.404	0.409	0.478	0.437	0.953	0.727	0.788	0.838	0.73	0.924	0.823	0.915	0.609	0.923	0.789	0.757	0.858	0.782	–
NCI-H2009	0.503	0.47	0.481	0.518	0.498	1.02	1.01	1.05	1.06	1.01	1.13	1.1	1.1	1.14	1	1.07	0.986	1.02	0.989	1
NCI-H1563	0.671	0.681	0.595	0.666	0.683	0.734	0.904	0.84	0.828	0.838	0.507	0.52	0.527	0.531	0.471	0.536	0.523	0.538	0.532	0.508
RERF-LC-KJ	0.41	0.45	0.397	0.402	0.355	0.81	0.799	0.824	0.873	0.806	1.32	1.31	1.19	1.23	1.28	1.11	1.29	1.34	1.19	1.19
NCI-H1703	–	–	–	–	–	0.785	1.13	0.682	0.582	1.01	–	–	–	–	–	–	–	–	–	–
NCI-H358	0.278	0.293	0.281	0.359	0.335	0.602	0.497	0.807	0.497	0.532	–	0.549	0.322	0.136	0.334	0.356	0.441	0.347	0.413	–
EBC-1	–	–	–	–	–	0.193	0.214	0.201	0.201	0.205	–	–	–	–	–	–	–	–	–	–
HCC-366	0.61	0.674	0.623	0.718	0.575	0.468	0.59	0.636	0.48	0.577	–	–	–	–	–	–	–	–	–	–
A549	0.19	0.176	0.145	0.255	0.172	0.805	0.738	0.844	0.722	0.765	–	–	–	–	–	–	–	–	–	–
NCI-H1299	–	–	–	–	–	0.938	1.01	1.03	0.982	0.928	–	–	–	–	–	–	–	–	–	–
NCI-H1623	0.622	0.662	0.537	0.613	0.576	–	–	–	–	–	0.53	0.497	0.446	0.492	0.371	0.511	0.539	0.451	0.476	0.47
HCC-78	0.801	0.71	–	0.707	0.558	0.352	0.321	–	0.362	0.322	–	–	–	–	–	–	–	–	–	–
NCI-H1793	0.387	0.346	–	0.469	0.359	–	–	–	–	–	0.591	0.168	0.202	0.155	0.179	0.263	–	0.207	0.207	0.144
NCI-H522	0.654	0.606	1.07	0.682	0.62	–	–	–	–	–	1.15	1.41	1.07	1.23	1.08	1.19	1.23	0.965	1.28	1.56
Calu-6	–	–	–	–	–	0.872	0.764	0.879	0.844	0.791	–	–	–	–	–	–	–	–	–	–
NCI-H1395	0.44	0.482	0.418	0.497	0.466	–	–	–	–	–	0.744	0.978	0.619	0.547	0.685	0.656	0.618	0.349	0.818	0.873
